One assay has as its system H9C2 cells. The experiment in a line: Isoproterenol-induced hypertrophy assay in H9C2 cells. The assay is classed as cell-based, rat. Particulars: isoproterenol 100 μM 24 h, then 50 μM 24 h; 10.5 μM FC9402. The protocol:
H9C2 cells, a rat ventricular cardiomyoblast cell line were obtained from ATCC (CRL-1446) and maintained in Dulbecco's modified Eagle's medium (DMEM) containing 10% FBS and 1× GlutaMAX. For hypertrophy studies, the cells were plated onto 4-well glass chamber slides precoated with poly-D-lysine. The maintenance medium was aspirated after 24 h and the cells were serum-starved overnight in DMEM containing 1% FBS and 1× GlutaMAX and then incubated for 48 h in fresh serum-starved medium containing isoproterenol, as indicated. […] Images were acquired using a FV3000 Olympus Confocal Microscope and analyzed using ImageJ. Cell surface area was determined by encircling the outer membrane of 30-50 cells per field in 6-10 field images for a total of 500 cells per condition.

For assay [1], the system named is TAC mouse model of heart failure. The format is in vivo. The following applies: 10 mg/kg i.p. daily. The protocol:
Male C57BL/6J mice 10-14 weeks of age were purchased from The Jackson Laboratory (Bar Harbor, Me.).
Mice were anesthetized with isofluran or ketamine/xylazine. The mice were orally intubated and placed on a Harvard volume-cycled rodent ventilator to maintain respiration during surgery. The TAC procedure was performed by tying the aortic arch between the brachiocephalic trunk (innominate artery) and the left carotid artery against a 27-gauge needle spacer with a 7-0 silk suture, followed by immediate removal of the needle. For sham surgeries, thoracotomy was performed and the aorta was surgically exposed without any further intervention. Following surgical closure of the chest, the animals were allowed to recover from anesthesia, followed by post-operative care. The animals were euthanized 12 weeks post-surgery; hearts were harvested, weighed and tibia lengths were measured.
Sterile stock solutions of vehicle only [NMP:PG:kleptose in water (10:40:50)] were similarly prepared each week and stored in aliquots at 4° C. until use. […] (to minimize precipitation), and then cooled to room temperature.
Transthoracic echocardiography was used to noninvasively quantify cardiac structural and functional changes during the progression to heart failure in the TAC mouse model. Measurements were conducted with animals under 1-3% isoflurane anesthesia using a Vevo® 2100 Imaging System with a high-frequency (18-38 MHz) probe (VisualSonics MS400) (Kohut et al., 2016, J. Cardiovasc. Ultrasound 24: 229-238). Echocardiography using color Doppler ultrasound was performed at 1 week after surgery to confirm the aortic constriction. The aortic constriction was further confirmed by conducting color Doppler and pulsed wave Dopier measurements at 12 weeks after surgery. Baseline echocardiography evaluations were performed 1-2 days prior to surgery. For these studies, parasternal long and short axis images were obtained in two-dimensional B-mode and M-mode. Additional images were obtained at regular intervals (2, 4, 6, 8, 10, 12 weeks) after surgery. To evaluate cardiac structure and function, the echocardiographic data were used to determine left ventricle (LV) end-diastolic diameter, LV end-systolic diameter, LV end-diasolic volume, LV ejection fraction, LV fractional shortening, and LV mass.
Mouse hearts were collected at 12 weeks post surgery, fixed in 10% buffered formalin, and then embedded in paraffin blocks, which were used to prepare serial 4 μm thick heart sections. To detect interstitial fibrosis, heart sections were stained with Masson's trichrome which colors collagen blue and cytoplasm red. Digital images of the slides were captured at 160× magnification using a Leica DFC290 digital camera in conjunction with a Leica MZ16F microscope. […] For each heart, 2 sections taken from the mid-ventricle were analyzed. […] Images were acquired using a FV3000 Olympus Confocal Microscope and analyzed in a blinded manner by two observers. Five field views per mid-ventricle heart section were analyzed by measuring the cross-sectional area of 100 cells per field view using ImageJ. A total of 500 cells per heart section were measured.
All data are expressed as means±SEM. Statistical significance was evaluated for comparison between 3 or more means using one-way ANOVA with Tukey-Kramer post hoc test. For the echcocardiography data, obtained prior to and at two-week intervals after surgery, statistical significance was evaluated using two-way repeated ANOVA with Bonferroni post hoc test.

Where [2] appears, read: echocardiography, TAC mice, 12 weeks.

Here are results for one compound from US20220096450A1, “Compounds and Methods for Treating or Preventing Heart Failure” (DREXEL UNIVERSITY, priority 2019, published 2022).

For `COc1nc(-c2ncccc2C)cc(-c2ccc(N)cc2)c1C#N` [FC9402, 4-(4-aminophenyl)-2-methoxy-6-(3-methylpyridin-2-yl)pyridine-3-carbonitrile], the “hypertrophic response (cell surface area)” value in the assay with H9C2 cells was “mitigates the hypertrophic response”. Also, the “survival after 12 weeks” value in assay [1] (TAC mice) is on record as 100%. In assay [1] (TAC mice, 12 weeks), the “cardiac enlargement (gross morphology, heart weight to tibia length)” value is recorded as “prevented the TAC-induced cardiac enlargement”. In assay [1] (setting [2]), the “left ventricle function (ejection fraction, fractional shortening)” value is on record as “preserved left ventricle function” and the “left ventricle size (diameter, volume, mass)” value is given as “maintained left ventricle size”. In addition, the “mice that developed heart failure” value in assay [1] (lung weight/tibia length above 95% confidence interval of sham) was 20%.
